Residues, ends and D or L forms follow the SMILES beside them. *: point of attachment. Fmoc = O=C(OCC1c2ccccc2-c2ccccc21)*
Tests used:
[1] = Emulsion formation by aromatic peptide amphiphiles (fluorescence microscopy, FITC label); type: physicochemical; details: chloroform / phosphate buffer pH 8; 10 mM peptide
Method: (§1) (the volume ratio of buffer solution to chloroform is altered from 1:9, 3:7, 5:5, 7:3, to 9:1, total volume was always 1 mL), after hand-shaking for 5 seconds emulsions form in vials. For SEM, IR, stability, average particle size, critical emulsion concentration and demulsification measurements, the volume ratio of buffer solution to chloroform was fixed at 7:3. The concentration of all aromatic peptide amphiphiles studied (Fmoc-YA, Fmoc-YS, Pyr-YL, Fmoc-FF and Fmoc-FFF) was 10 mM, except for in the determination of the critical emulsion concentration (0.1-10 mM) and demulsification measurements (2 mM).

[2] = type: physicochemical
Method: To further increase the hydrophobicity, di- and tri-phenylalanine were tested as the peptide sequences (Fmoc-FF and Fmoc-FFF). […] Replacing the Fmoc group with pyrene, amphiphiles and the emulsion systems are inherently endowed with fluorescent properties. […] There is the clear expectation, based upon the results presented that it should be possible to change the peptide sequences and aromatic moieties to further to optimize and functionalize the emulsion systems.

[3] = Stability of chloroform-in-water emulsions (time, heat, salts) versus SDS; type: physicochemical; details: 10 mM
Method: The top images show freshly prepared emulsions and the bottom images show emulsions incubated for 2 weeks. […] The top images show freshly prepared emulsions and the bottom images show emulsions heated at 60° C. for 3 hours. […] The top images show freshly prepared emulsions and the bottom images show emulsions incubated for 24 hours.
as §1

[4] = Partitioning of peptides between water, chloroform and the water/chloroform interface (UV-Vis); type: physicochemical; details: water/chloroform biphasic system
Excerpt: (the volume ratio of buffer solution to chloroform is altered from 1:9, 3:7, 5:5, 7:3, to 9:1), after manual agitation for 5 seconds emulsions form in vials, as FIG. 2a shown. […] In the images shown, the milky layers are emulsions and the transparent layers above and below are the aqueous and chloroform phase, respectively. UV-Vis was used to determine the amount of Fmoc-YL that remained in water phase and transferred to chloroform. Fluorescein isothiocyanate (FITC) was used to label the aqueous phase in the emulsion layers for imaging by fluorescence microscopy.
High resolution mass spectra (HRMS) were recorded on a Thermo Electron Exactive. 400.1 (1H) NMR spectra were recorded on Brucker Avance 400 spectrometer at room temperature using perdeuterated solvents as internal standards. The emulsion droplets were characterized by fluorescence microscopy. The devices were mounted on an inverted microscope (AXIO Observer A1, Zeiss) and images were acquired using a EMCCD LucaR camera (Andor Technologies). Images (using brightfield and fluorescence microscopy) were acquired using Zeiss ×20 dry objective and the appropriate filter set for the fluorophore being imaged. Image was analyzed using ImageJ.

[5] = Gel formation in buffer solution and chloroform; type: physicochemical; details: 10 mM in 0.6 M sodium phosphate buffer pH 8, no enzyme
alkaline phosphatase = target: T1, alkaline phosphatase (Bos taurus, UniProt P19111); assay: Dephosphorylation of Fmoc-YpL to Fmoc-YL by alkaline phosphatase (reversed phase HPLC); type: biochemical, bovine; details: 10 mM, buffer pH 8
T1 construct: purchased Sigma Aldrich; host or cells: Pichia pastoris
T1 sequence (P19111 20-506): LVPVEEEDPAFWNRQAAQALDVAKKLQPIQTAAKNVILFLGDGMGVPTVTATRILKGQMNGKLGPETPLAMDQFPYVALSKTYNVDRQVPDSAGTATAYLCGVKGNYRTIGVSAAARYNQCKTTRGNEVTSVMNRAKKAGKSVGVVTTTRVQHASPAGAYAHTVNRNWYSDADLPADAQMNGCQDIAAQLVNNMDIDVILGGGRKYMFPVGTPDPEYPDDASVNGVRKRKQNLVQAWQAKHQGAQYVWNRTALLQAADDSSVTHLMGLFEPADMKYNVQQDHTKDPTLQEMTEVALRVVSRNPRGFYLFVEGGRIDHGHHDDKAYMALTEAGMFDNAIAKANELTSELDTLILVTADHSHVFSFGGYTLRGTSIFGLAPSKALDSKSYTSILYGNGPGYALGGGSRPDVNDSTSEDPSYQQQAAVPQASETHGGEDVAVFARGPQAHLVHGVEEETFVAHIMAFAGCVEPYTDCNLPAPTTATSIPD
Method: Enzymatic Conversion of Fmoc-YpL to Fmoc-YL.
Fmoc-Tyr(PO(NMe2)2-OH (537.55 g·mol^−1) was purchased from Novabiochem. Fmoc-Tyr-OH (403.43 g·mol^−1), L-Leucine tert-butyl hydrochloride (223.74 g·mol^−1) and alkaline phosphatase from bovine, expressed in Pichia pastoris (5000 U·mg^−1protein, 20 mgprotein·mL^−1, 0.049 mL, Apparent molar weight 160 kDa) were supplied by Sigma Aldrich. One enzyme unit corresponds to the quantity of alkaline phosphatase hydrolysing 1 μmol of 4-nitrophenyl phosphate per minute at pH 9.8 and 37° C.
10 mM of synthesised Fmoc-YpL was prepared in 950 μL of 0.6 M sodium phosphate buffer pH 8 and immediately added 50 μL of alkaline phosphatase (0.0555 U·μL^−1, or 55.53 U·mL^−1 enzymatic concentration), vortexed and subject to ultra sounds at room temperature. All characterisation was done after 24 hours except when stated otherwise. For the Fmoc-YpL precursor, the preparation was the same except no enzyme was added.

thermolysin = target: T2, thermolysin (Bacillus thermoproteolyticus, UniProt P00800); assay: Enzymatic demulsification of emulsions by thermolysin; type: biochemical
T2 sequence (P00800 233-548): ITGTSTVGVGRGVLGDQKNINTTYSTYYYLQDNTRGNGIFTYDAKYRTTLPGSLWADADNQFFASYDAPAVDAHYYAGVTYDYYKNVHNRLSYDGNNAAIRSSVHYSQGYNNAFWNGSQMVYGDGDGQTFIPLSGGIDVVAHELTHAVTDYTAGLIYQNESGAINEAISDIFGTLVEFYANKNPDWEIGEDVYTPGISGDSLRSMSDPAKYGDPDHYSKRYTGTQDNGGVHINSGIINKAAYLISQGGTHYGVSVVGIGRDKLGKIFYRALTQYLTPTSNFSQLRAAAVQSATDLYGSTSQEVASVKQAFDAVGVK
Excerpt: Scale bar is 50 μm. […] (c) Optical photographs of vials in which emulsions formed (left) and demulsified (right) in addition of thermolysin.
Another vital advantage of using peptide self-assembly to stabilize the emulsion systems is the ability to digest the stabilizing film using a suitable enzyme. Proteases, the enzymes that cleave peptide bonds cause disassembly of amphiphiles.
as §1

O=C(N[C@@H](Cc1ccccc1)C(=O)N[C@@H](Cc1ccccc1)C(=O)N[C@@H](Cc1ccccc1)C(=O)O)OCC1c2ccccc2-c2ccccc21 [Fmoc-FFF, Fmoc-Phe-Phe-Phe-OH] (Fmoc-Phe-Phe-Phe-OH)
type of emulsion formed [1]: formation of water-in-chloroform emulsions | solubility in chloroform [2]: do dissolve in chloroform | solubility in the water phase [2]: too hydrophobic to dissolve in the water phase

CCCCCCCCCCCCOS(=O)(=O)[O-].[Na+] [SDS, sodium dodecyl sulfate]
emulsion state after 24 h in salt solution ([3]; 100 mM phosphate, chloride and thiocyanate solution): phase-separated | emulsion state after two weeks at room temperature ([3]; chloroform-in-water): demulsified and phase-separated

Fmoc-tyrosine phosphate-leucine [Fmoc-YpL]
Remain in water (%) [4]: 31.03% | Transfer to chloroform (%) [4]: 0.74% | Transfer to interface (%) [4]: 68.23% | gel formation of precursor solution [5]: not able to form a gel | time to complete conversion to Fmoc-YL (alkaline phosphatase): ≤ 24 h | Fmoc-YpL converted into Fmoc-YL (alkaline phosphatase; after 2 hours): approximately 90%

Fmoc-tyrosine-leucine [Fmoc-YL]
time for droplets to demulsify and coalesce to bigger droplets after adding thermolysin (thermolysin; 1 mg·mL^−1 thermolysin, 2 mmol·L^−1 Fmoc-YL): 60 s | conversion of cleaving reaction catalyzed by thermolysin (HPLC) (thermolysin; after 10 minutes, aqueous media): 50%

Reference: patent publication US20170188618A1, “STABLE EMULSIONS FROM DIPEPTIDE DERIVATIVES” (UNIVERSITY OF STRATHCLYDE, priority 2014, published 2017)
